Experimental data published in ChEMBL document CHEMBL1201862, “PubChem BioAssay data set” (2004).
Calls of active or inactive are those of the source.

Legend:
[1] = target: Potassium voltage-gated channel subfamily KQT member 2 (Rattus norvegicus, UniProt O88943); assay: blockers of KCNQ2 channel current – cell-based, automated electrophysiology, set II, rat KCNQ2, dose response (AID 588637); assay type: functional
Phospholipase A2 = Phospholipase A2 (Homo sapiens, UniProt P04054); assay type: functional;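 note: confirmatory dose-response counterscreen on phospholipase A2, testing hits that came from an ultra-high-throughput screen for ATG4B inhibitors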
Cysteine protease ATG4B = target: T1, Cysteine protease ATG4B (Homo sapiens, UniProt Q9Y4P1); assay type: functional;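 note: Fluorescence-based dose-response confirmation assay measuring inhibition of ATG4B activity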
T1 sequence (Q9Y4P1 whole entry): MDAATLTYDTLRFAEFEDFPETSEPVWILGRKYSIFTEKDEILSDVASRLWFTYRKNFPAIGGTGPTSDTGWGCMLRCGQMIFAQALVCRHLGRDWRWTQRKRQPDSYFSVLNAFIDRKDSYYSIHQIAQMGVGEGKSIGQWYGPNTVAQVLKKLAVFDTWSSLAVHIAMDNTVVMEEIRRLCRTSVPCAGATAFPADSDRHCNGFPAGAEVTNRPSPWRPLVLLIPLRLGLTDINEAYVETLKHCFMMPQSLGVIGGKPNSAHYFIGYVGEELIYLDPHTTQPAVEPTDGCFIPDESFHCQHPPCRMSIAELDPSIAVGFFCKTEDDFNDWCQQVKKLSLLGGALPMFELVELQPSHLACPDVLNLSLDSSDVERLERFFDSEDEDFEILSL

[2] = target: Long-chain-fatty-acid--AMP ligase FadD28 (Mycobacterium tuberculosis, UniProt P9WQ59); assay: Fluorescence polarization aasay to screen for inhibitors that compete for the binding of FadD28 to a bisubstrate Measured in Biochemical System Using Plate Reader - 2147-01_Inhibitor_Dose_CherryPick_Activity.; assay type: functional, Mycobacterium tuberculosis H37Rv
[3] = target: T2, Aryl hydrocarbon receptor (Homo sapiens, UniProt P35869); conditions: Potency;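 note: confirmatory quantitative high-throughput screen measuring activation of the AhR signaling pathway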
T2 sequence (P35869 whole entry): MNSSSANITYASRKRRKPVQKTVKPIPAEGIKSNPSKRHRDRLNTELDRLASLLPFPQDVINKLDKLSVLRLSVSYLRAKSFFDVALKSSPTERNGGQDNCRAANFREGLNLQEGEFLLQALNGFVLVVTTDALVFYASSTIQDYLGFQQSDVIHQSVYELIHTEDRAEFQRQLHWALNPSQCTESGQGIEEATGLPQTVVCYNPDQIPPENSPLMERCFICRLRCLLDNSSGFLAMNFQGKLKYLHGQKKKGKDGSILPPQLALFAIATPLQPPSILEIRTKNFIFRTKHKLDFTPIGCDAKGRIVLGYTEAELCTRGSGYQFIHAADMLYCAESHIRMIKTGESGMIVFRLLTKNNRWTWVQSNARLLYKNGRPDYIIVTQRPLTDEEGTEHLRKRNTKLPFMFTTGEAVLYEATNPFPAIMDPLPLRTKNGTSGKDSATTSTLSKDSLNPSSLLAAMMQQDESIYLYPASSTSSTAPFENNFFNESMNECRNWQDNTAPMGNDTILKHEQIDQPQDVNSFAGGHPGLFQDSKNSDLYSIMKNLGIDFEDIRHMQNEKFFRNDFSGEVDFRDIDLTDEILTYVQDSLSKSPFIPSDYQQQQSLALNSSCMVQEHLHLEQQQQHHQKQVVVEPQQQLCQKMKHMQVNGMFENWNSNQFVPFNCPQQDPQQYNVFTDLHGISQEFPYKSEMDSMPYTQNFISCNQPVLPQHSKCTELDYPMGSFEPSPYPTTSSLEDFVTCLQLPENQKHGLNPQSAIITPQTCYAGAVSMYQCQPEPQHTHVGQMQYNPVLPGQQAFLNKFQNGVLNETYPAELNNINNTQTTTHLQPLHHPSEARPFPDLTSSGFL

[4] = Counterscreen for inhibitors of Trypanosoma brucei methionyl tRNA synthetase (MetRS): Luminescence-based cell-based high throughput dose response assay to identify compounds that are cytotoxic to Jurkat human T lymphocyte cells.; assay type: functional
[5] = target: T3, Methionyl-tRNA synthetase, putative (Trypanosoma brucei brucei, UniProt Q38C91); assay type: functional, Trypanosoma brucei brucei strain 927/4 GUTat10.1
T3 sequence (Q38C91 whole entry): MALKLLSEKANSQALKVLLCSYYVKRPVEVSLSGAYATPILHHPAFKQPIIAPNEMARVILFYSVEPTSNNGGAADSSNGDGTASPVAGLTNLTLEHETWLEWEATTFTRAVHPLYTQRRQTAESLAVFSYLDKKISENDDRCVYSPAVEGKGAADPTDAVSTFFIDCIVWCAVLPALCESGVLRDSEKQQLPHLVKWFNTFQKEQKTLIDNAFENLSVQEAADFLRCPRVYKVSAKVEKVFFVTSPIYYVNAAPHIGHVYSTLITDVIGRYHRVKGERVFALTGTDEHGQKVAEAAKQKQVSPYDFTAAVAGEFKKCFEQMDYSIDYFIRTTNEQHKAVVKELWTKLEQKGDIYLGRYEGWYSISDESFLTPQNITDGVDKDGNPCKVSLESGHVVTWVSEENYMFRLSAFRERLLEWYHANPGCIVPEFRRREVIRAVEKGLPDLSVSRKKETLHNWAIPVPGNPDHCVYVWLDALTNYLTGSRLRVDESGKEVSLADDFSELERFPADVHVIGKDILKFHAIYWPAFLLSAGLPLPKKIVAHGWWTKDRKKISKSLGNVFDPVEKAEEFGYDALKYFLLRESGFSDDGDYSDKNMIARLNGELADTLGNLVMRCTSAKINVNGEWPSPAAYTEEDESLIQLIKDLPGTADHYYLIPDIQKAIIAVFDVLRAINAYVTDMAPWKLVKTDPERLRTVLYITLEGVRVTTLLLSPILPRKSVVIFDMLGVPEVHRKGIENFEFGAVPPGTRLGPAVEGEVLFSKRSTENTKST

[6] = target: T3, Methionyl-tRNA synthetase, putative; assay type: functional, Trypanosoma brucei brucei strain 927/4 GUTat10.1; remark: listed apart in the source
[7] = target: T4, Orexin/Hypocretin receptor type 1 (Homo sapiens, UniProt O43613); assay: Homogeneous Time Resolved Fluorescence (HTRF)-based cell-based high throughput dose response assay for antagonists of the orexin 1 receptor (OX1R; HCRTR1). [Related pubchem assays (depositor defined):AID434989, AID435008, AID463079, AID485270, AID492963, AID492964, AID492965, AID493232, AID504717, AID504718]; assay type: functional
T4 sequence (O43613 whole entry): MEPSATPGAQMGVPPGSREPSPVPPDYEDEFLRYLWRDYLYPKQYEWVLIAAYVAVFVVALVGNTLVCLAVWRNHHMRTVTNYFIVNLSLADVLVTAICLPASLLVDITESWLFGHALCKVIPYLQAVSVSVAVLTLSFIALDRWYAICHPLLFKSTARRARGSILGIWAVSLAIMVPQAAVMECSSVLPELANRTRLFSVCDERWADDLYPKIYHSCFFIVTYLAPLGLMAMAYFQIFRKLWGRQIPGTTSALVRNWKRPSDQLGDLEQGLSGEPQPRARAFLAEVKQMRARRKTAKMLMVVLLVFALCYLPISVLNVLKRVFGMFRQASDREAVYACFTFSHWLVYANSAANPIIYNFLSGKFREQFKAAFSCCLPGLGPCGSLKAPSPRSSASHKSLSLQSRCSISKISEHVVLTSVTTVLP

CHO-K1 = assay: (§1) Counterscreen for antagonists of the orexin 1 receptor (OX1R; HCRTR1): Homogeneous time resolved fluorescence (HTRF)-based cell-based dose response assay to identify antagonists of the parental CHO-K1 cell line. [Related pubchem assays (depositor defined):AID434989, AID435008, AID463079, AID485270, AID492963, AID492964, AID492965, AID493232, AID504699, AID504701]; assay type: functional; conditions: Cricetulus griseus
Orexin receptor type 2 [8] = target: T5, Orexin receptor type 2 (Homo sapiens, UniProt O43614); assay: Counterscreen assay for antagonists of the orexin 1 receptor (OX1R; HCRTR1): Homogeneous Time Resolved Fluorescence (HTRF)-based cell-based dose response assay for antagonists of the orexin 2 receptor (OX2R; HCRTR2), run by assay provider.; assay type: functional
T5 sequence (O43614 whole entry): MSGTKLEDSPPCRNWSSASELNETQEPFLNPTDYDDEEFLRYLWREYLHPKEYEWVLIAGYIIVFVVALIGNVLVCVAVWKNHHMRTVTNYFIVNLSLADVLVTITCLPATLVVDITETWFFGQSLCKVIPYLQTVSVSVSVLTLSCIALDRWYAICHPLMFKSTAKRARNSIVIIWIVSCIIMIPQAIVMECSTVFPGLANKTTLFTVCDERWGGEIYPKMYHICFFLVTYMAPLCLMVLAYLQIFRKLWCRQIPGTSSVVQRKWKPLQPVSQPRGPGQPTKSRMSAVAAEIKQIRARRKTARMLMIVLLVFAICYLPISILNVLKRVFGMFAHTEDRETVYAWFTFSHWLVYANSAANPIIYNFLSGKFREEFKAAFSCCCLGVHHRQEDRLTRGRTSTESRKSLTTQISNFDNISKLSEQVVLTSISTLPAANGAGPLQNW

Orexin receptor type 2 [9] = target: T5, Orexin receptor type 2; assay: Counterscreen assay for antagonists of the orexin 1 receptor (OX1R; HCRTR1): Fluorescence-based cell-based dose response assay for antagonists of the orexin 2 receptor (OX2R; HCRTR2), run by assay provider.; assay type: functional
[10] = as §1, with “Fluorescence-based” for “Homogeneous time resolved fluorescence (HTRF)-based”, “cell-based high throughput” for “cell-based”, “CHO” for “CHO-K1”; assay type: functional
[11] = target: T4, Orexin/Hypocretin receptor type 1; assay: Fluorescence-based cell-based high throughput dose response assay for antagonists of the orexin 1 receptor (OX1R; HCRTR1). [Related pubchem assays (depositor defined):AID434989, AID435008, AID463079, AID485270, AID492963, AID492964, AID492965, AID493232, AID504717, AID504718]; assay type: functional
Protein Wnt-3a = Protein Wnt-3a (Mus musculus, UniProt P27467); assay: antagonism of Wnt3a pathway luciferase reporter – Wnt-LIGHT cells, luminescence, selectivity assay for Gli-SUFU antagonist project, dose response (AID 651570); assay type: functional; conditions: read-out: IC50_Mean;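 note: Wnt-LIGHT reporter cells stimulated with conditioned medium from Wnt3a-producing cells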
Interleukin-8 = target: T6, Interleukin-8 (Homo sapiens, UniProt P10145); assay: Dose Response confirmation of uHTS small molecule hits for cystic fibrosis induced NFkb Inhibitors in a PAF-induced IL8 counterscreen.; assay type: functional; conditions: read-out: IC50_Mean
T6 sequence (P10145 whole entry): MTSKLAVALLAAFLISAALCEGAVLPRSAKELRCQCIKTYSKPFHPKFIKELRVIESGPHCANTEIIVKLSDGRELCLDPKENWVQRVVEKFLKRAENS

[12] = target: Mitogen-activated protein kinase 10 (Homo sapiens, UniProt P53779); assay: Dose response biochemical screening assay for inhibitors of c-Jun N-Terminal Kinase 3 (JNK3). [Related pubchem assays: 746 ]
[13] = HIV-1 AD8 envelope cell-cell fusion blockers – cherry-pick, dose response (AID 652062); assay type: functional, cell-based;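 note: luciferase signal from cell-cell fusion driven by HIV-1 clade B AD8 Env; potency is for inhibitors of fusion seen as a drop in luminescence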
[14] = blockers of HIV-1 envelope-mediated cell-cell fusion – cherry-pick, dose response (AID 652057); assay type: functional, cell-based
[15] = non-specific 3'UTR reporter inhibition in Clone20-Shn3RL – cell-based, Renilla luciferase, cherry-picked, counter-screen for Shn3 inhibitor project, dose response (AID 624133); assay type: functional
[16] = loss of viability in HepG2 cells – cell-based, CellTiter-Glo, cherry-picked, cytotoxicity control for Shn3 inhibitor project, dose response (AID 624134); assay type: functional
[17] = off-target signal loss in HeLa-CEM21 co-culture – HeLa F-luc CTL cells, cherry-picked, counter-screen for HIV-1 Env fusion inhibitor project, dose response (AID 652040); assay type: functional, cell-based;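 note: potency for signal decrease marking cytotoxic or nonspecific inhibition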
[18] = reduction of Shn3 3'UTR-driven luciferase in osteoblasts – cell-based, Clone20 osteoblasts, firefly luciferase, cherry-picked, dose response (AID 624132); assay type: functional;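 note: firefly luciferase luminescence from reporter carrying the Shn3 3'UTR in osteoblasts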

Chain of Protein Wnt-3a (P27467 whole entry): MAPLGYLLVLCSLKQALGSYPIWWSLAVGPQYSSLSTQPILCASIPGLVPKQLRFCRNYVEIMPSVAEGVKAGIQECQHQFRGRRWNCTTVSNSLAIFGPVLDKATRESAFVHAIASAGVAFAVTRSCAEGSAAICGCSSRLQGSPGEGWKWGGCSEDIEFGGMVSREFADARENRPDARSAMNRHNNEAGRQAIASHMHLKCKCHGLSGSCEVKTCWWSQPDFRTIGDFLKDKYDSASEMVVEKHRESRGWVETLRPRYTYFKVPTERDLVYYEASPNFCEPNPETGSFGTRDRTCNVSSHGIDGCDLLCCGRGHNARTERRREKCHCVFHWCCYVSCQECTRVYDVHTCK
Chain of Phospholipase A2 (P04054 whole entry): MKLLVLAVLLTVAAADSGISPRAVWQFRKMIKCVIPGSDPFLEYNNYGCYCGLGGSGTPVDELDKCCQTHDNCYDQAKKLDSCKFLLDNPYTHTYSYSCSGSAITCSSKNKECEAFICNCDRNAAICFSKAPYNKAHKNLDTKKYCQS
Chain of Potassium voltage-gated channel subfamily KQT member 2 (O88943 whole entry): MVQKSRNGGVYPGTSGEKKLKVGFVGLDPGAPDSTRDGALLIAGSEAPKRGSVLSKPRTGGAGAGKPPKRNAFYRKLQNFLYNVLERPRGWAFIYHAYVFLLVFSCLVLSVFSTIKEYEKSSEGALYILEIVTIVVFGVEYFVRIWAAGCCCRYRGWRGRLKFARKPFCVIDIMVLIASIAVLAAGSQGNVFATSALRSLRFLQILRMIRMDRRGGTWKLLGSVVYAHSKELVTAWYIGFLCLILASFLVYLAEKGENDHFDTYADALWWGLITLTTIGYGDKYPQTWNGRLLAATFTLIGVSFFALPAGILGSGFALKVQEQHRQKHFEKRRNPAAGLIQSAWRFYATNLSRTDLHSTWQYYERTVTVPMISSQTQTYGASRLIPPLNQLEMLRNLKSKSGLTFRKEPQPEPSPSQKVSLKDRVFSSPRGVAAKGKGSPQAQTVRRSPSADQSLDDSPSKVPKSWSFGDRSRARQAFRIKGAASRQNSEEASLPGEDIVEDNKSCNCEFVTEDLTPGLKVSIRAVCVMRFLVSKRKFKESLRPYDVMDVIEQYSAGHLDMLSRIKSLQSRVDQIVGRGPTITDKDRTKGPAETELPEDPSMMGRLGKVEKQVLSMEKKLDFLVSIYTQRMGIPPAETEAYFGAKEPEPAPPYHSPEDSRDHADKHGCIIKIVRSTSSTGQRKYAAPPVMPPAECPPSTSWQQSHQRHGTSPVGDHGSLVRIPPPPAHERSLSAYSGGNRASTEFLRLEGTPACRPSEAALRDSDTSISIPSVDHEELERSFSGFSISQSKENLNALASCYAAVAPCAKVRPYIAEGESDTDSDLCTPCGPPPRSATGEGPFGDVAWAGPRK
Chain of Mitogen-activated protein kinase 10 (P53779 whole entry, the tested form may be a part): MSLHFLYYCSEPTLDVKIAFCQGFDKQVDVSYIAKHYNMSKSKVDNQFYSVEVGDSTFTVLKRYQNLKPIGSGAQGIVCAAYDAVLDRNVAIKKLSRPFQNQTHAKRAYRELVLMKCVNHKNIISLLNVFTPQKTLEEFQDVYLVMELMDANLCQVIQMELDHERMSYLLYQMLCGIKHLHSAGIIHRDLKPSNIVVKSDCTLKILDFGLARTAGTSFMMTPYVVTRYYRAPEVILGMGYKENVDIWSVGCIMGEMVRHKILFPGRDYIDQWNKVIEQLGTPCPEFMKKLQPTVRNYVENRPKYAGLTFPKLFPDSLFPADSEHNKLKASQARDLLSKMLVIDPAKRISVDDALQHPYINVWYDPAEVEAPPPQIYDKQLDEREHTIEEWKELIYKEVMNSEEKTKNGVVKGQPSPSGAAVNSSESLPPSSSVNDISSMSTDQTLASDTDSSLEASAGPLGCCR
Chain of Long-chain-fatty-acid--AMP ligase FadD28 (P9WQ59 whole entry): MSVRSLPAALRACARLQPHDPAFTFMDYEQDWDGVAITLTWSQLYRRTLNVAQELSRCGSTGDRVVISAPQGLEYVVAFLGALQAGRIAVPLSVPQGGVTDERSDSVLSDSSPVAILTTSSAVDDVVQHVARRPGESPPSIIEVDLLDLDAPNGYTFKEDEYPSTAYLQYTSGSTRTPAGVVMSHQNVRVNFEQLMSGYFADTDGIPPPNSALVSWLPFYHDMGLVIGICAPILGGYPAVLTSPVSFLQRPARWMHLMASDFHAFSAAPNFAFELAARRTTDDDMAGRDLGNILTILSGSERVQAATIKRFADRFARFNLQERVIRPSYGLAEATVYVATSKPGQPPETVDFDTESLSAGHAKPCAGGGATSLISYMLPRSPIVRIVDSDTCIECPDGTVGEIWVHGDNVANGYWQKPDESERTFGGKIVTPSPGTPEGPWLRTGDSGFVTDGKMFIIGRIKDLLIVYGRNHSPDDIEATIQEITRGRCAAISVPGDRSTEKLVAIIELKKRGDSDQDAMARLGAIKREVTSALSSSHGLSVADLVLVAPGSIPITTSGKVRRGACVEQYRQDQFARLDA

CCc1sc(C(=O)Nc2ccccc2N2CCOCC2)cc1C
IC50 [1]: 5.75 µM (active)

O=C(CNCCc1ccc(Cl)cc1Cl)NCc1ccco1
IC50 (Phospholipase A2): 12.3 µM (active) | IC50 (Cysteine protease ATG4B): 18.7 µM (active)

CCC(C(=O)Nc1ccccc1N1CCCC1)c1ccccc1 (configuration not stated)
IC50 [1]: 0.161 µM (active)

COc1ccc(CN2CCC(C(=O)Nc3ccc(Oc4cccnc4)cc3)CC2)cc1
AC50 [2]: > 100 µM (inactive)

Cc1ccc2c(c1[N+](=O)[O-])C(=O)c1ccccc1C2=O
AC50 [3]: 17.8 µM (inconclusive)

O=C(Cc1ccc(Nc2nc3cc(Br)ccc3[nH]2)cc1)NCCc1cccs1
IC50 [4]: 27.8 µM (inactive) | IC50 [5]: 0.286 µM (active) | IC50 [6]: 0.163 µM (active)

Cc1ccc2nc(Nc3ccccc3)c(/C=N/O)c(=O)n2c1
IC50 [7]: 5.11 µM (active) | IC50 (CHO-K1): > 66.3 µM (inactive) | IC50 (Orexin receptor type 2 [8]): > 50 µM (inactive) | IC50 (Orexin receptor type 2 [9]): 32.5 µM (inactive) | IC50 [10]: > 49.8 µM (inactive) | IC50 [11]: 9.96 µM (active)

NC(=O)c1ccccc1OCC(=O)N1CCC(Cc2ccccc2)CC1
IC50 (Protein Wnt-3a): 3.28 µM (active)

COC(=O)[C@H](Cc1c[nH]c2ccccc12)NC(=O)CCCc1c[nH]c2ccccc12
IC50 [7]: 15.3 µM (inactive) | IC50 (CHO-K1): > 66.2 µM (inactive) | IC50 (Orexin receptor type 2 [8]): 6.41 µM (active) | IC50 (Orexin receptor type 2 [9]): 17.2 µM (inactive) | IC50 [10]: 17.4 µM (inactive) | IC50 [11]: 9.04 µM (active)

COC(=O)CSc1nc2cc(Cl)ccc2c(=O)n1C1CCCC1
IC50 (Phospholipase A2): 11.4 µM (active) | IC50 (Cysteine protease ATG4B): 5.43 µM (active)

COc1ccc(-c2cnc(N)nc2-c2ccc(OC)cc2O)cc1
IC50 (Interleukin-8): 14.6 µM (inactive) | IC50 [12]: 19.9 µM (not active)

COc1cccc(C2c3[nH]c4ccccc4c3C[C@H]3C(=O)N(C4CC4)CC(=O)N23)c1 (some centres not stated)
IC50 [4]: 83.2 µM (inactive) | IC50 [5]: 36.8 µM (inactive) | IC50 [6]: 118 µM (inactive)

CC1=C(C(=O)Nc2ccccc2)SCCO1 [CARBOXIN]
AC50 [3]: 50.1 µM (inconclusive)

CCC(C)NS(=O)(=O)c1ccc(S(=O)(=O)N2CCCC3(CCCCC3)C2)cc1 (configuration not stated)
AC50 [13]: 11.7 µM (active) | AC50 [14]: 21.4 µM (active) | AC50 [15]: 5.9 µM (active) | AC50 [16]: 6.54 µM (active) | IC50 (Protein Wnt-3a): 5.16 µM (active) | AC50 [17]: 58.9 µM (active) | AC50 [18]: 3.44 µM (active)
